Peptide text beside a SMILES is read from it.
Legend:
Format in all cases: cell-based, Human
[1] = system: HepG2 cells; conditions: 50 or 100 µM peptide 24 h, then 20 mM AAPH 24 h, MTT
Method: Human hepatocellular carcinoma (HepG2) cells were purchased from the American Type Culture Collection (ATCC; Manassas, VA, USA). They were cultured at 37 °C in a humidified incubator with 5% CO2 and 95% air. Dulbecco’s Minimal Essential Media (DMEM) supplemented with 10% (v/v) Fetal Bovine Serum was used for the maintenance of cells. […] The MTT (3-(4,5-dimethylthiazol-2-yl)-2,5-diphenyltetrazolium bromide) assay, as described in an earlier research, was used for cytotoxicity and cytoprotective tests. […] Following another 24 h incubation, cells were washed twice with 200 µL of PBS. Ten µL of MTT solution (5 mg/mL in PBS) and 100 µL of media were added to each well. After 1 h, MTT solution was removed, and 50 µL DMSO were added. Absorbances were recorded at 570 nm with 630 nm background subtraction using a BioTek Epoch™ microplate reader (Fisher Scientific, Nepean, ON, Canada). Untreated cells were used as negative control (NC) and cells treated with only AAPH were used as positive control (PC).

[2] = system: glutathione peroxidase (GPx); assay: Glutathione peroxidase activity of lysates of AAPH-stressed cells; conditions: then AAPH 24 h; for Effect on GPx activity of AAPH-stressed cells: 50 µM peptide 24 h; for Increase of GPx activity above that of normal cells: 100 µM peptide 24 h, p < 0.05
Method: (§1) Cells were seeded at 1 × 10^6 cells/plate in 60 mm tissue culture plates and allowed to grow for 24 h. In each plate, cells were washed twice with 4 mL of PBS (pH 7.2), and treated with 4 mL peptide samples (P1, P2, P6, P7) dissolved in culture media at 50 or 100 µM for 24 h. After removal of peptide solutions, cells were washed twice with 4 mL of PBS/plate and treated with 4 mL of […] dissolved in culture media and allowed to incubate for 24 h. Cells in each culture plate were harvested by incubation (5 min) with 0.5 mL of 0.25% trypsin, addition of 1 mL of culture media and centrifugation at 1000× g for 5 min. Cell pellets were washed with ice cold PBS (500 µL each) until no pink color was observed, re-suspended in ice cold PBS (300 µL) for the superoxide dismutase (SOD) assay, 500 µL for glutathione peroxidase (GPx) and catalase (CAT) assays. For total glutathione assay, 300 µL of 5% ice cold sulfosalicylic acid bubbled with 100% nitrogen was used for cell lysis. Cells were lysed by sonication on ice for 1 min using a probe-type sonicator (Vibra-Cell, Sonics and Materials Inc., Newtown, CT, USA) pulsing at 15 s on and 10 s off cycles. Following centrifugation of cell lysate at 13,000× g (4 °C), pellets containing cell debris were discarded, while supernatants were used for determination of glutathione content. Protein contents were determined using a modified Lowry assay.
The activity of GPx was determined as previously described in a 96-well plate. Briefly, in each well, 187.5 µL of potassium phosphate buffer was mixed with 12.5 µL NADPH (4 mM) solution and 25 µL of cell lysates or buffer (blank), and incubated at 30 °C for 5 min. Then, 100 µL of 0.15% cumene hydroperoxide was added in each well to begin the reaction. The rate of disappearance of NADPH was followed at 340 nm for 5 min. The activity was expressed as Units of GPx activity/mg protein.

[3] = system: superoxide dismutase (SOD); assay: Superoxide dismutase activity of lysates of AAPH-stressed cells; conditions: 50 and 100 µM peptide 24 h, then AAPH 24 h
Method: as §1
The SOD activity was measured based on the rate of reduction of nitroblue tetrazolium (2.24 mM) to formazan by xanthine oxidase (13.2 U/mL) at 560 nm. Eight concentrations of each cell extract ([…] protein/mL) or SOD standard (2–500 ng/mL) were used to obtain inhibition curves. Specifically, 20 µL of cell sample, or buffer (blank) was mixed with 160 µL of assay solution, and 20 µL of xanthine oxidase was added to initiate the reaction. The reduction of nitroblue tetrazolium to blue formazan by O2^−• generated in situ was followed at 560 nm. SOD activities were calculated and expressed as units per milligram of protein.

[4] = system: glutathione (GSH) of HepG2 cells; assay: Cellular glutathione, enzymatic recycling method; conditions: 100 µM peptide 24 h, then AAPH 24 h, p < 0.05
Method: as §1
The assay was based on the enzymatic recycling method adjusted for 96-well plates. All solutions were prepared in sodium phosphate buffer (125 mM, pH 7.5) that contained 6.3 mM EDTA (ethylenediaminetetraacetic acid). In summary, 60 µL of 0.35 mM NADPH and 10 µL of 6 mM DTNB were added to wells, this was followed by the addition of 20 µL cell lysate or glutathione (GSH) standard. To initiate the reaction, 10 µL of glutathione reductase (5 IU/mL) was added and the rate of reaction between GSH from cell lysate and DTNB was measured at 412 nm. Total glutathione of cell lysates was calculated based on a standard curve of glutathione.

Row | Structure (SMILES) | Cytoprotective effect against AAPH-induced damage [1] | Effect on GPx activity of AAPH-stressed cells [2] | Increase of GPx activity above that of normal cells [2] [%] | Effect on SOD activity compared to AAPH treated cells only (PC) [3] | GSH concentration relative to normal cells [4]
1 | CC[C@H](C)[C@H](NC(=O)[C@H](Cc1ccc(O)cc1)NC(=O)[C@@H](NC(=O)[C@H](CC(C)C)NC(=O)CNC(=O)[C@@H]1CCCN1C(=O)[C@H](C)NC(=O)[C@H](CC(N)=O)NC(=O)[C@H](Cc1c[nH]cn1)NC(=O)[C@@H](N)Cc1ccc(O)cc1)C(C)C)C(=O)N[C@@H](CC(C)C)C(=O)O [P6] (H-YHNAPGLVYIL-OH; N-terminus and C-terminus assumed) | cytoprotective | completely restored the activity | 38.6 | did not affect the activity | further increased
2 | CC[C@H](C)[C@H](NC(=O)[C@H](Cc1ccc(O)cc1)NC(=O)[C@@H](NC(=O)[C@H](CC(C)C)NC(=O)CN)C(C)C)C(=O)N[C@@H](CC(C)C)C(=O)O [P2] (H-GLVYIL-OH; N-terminus and C-terminus assumed) | – | completely restored the activity | 30.2 | increase SOD to a level equivalent to that of normal cells | further increased
